How the values were obtained:
[1] = tested on: pawlick response induced by capsaicin; experiment: Paw lick assay (capsaicin challenge); format: in vivo; conditions: 30 mg/kg, at least 30 minutes prior to testing; FIG. 5
Experimental: This assay was performed to test the ability of Compound 18 to inhibit the response to capsaicin challenge.
Animals were acclimatized at least 2 days prior to testing by placing them in a behavioral chamber for one hour. On the day of testing, animals were trained for 30-60 minutes prior to dosing. Animals were dosed with 30 mg/kg of Compound 18 at least 30 minutes prior to testing and then placed in behavioral chambers for acclimatization. Animals were then placed into a falcon tube restrainer and injected with a 0.16 mg/ml capsaicin solution (or vehicle) into the plantar surface of their paw. Animals were then returned to the behavior chamber and monitored for paw licking behavior (including paw and leg licking behavior) over the next 5 minute interval.

[2] = Pharmacokinetic profile after intravenous and oral administration; format: in vivo; conditions: male, Sprague-Dawley, rat, plasma, rats, IV 1 mg/kg and oral 5 mg/kg
Experimental: The pharmacokinetic profile of Compound 18 was evaluated following intravenous and oral administration in rats. Sprague-Dawley male rats obtained from Charles River, San Diego, Calif. were acclimated for 24 hours. Compound 18 was formulated at a concentration of 0.5 mg/mL for IV administration at a 1 mg/kg dose and 1 mg/mL for oral administration at a 5 mg/kg dose. All animals were weighed before dosing. The body weight was used to calculate the actual dose for each animal. The intravenous dose was administered through the jugular vein catheter in less than 1 minute. The oral dose volume was 1.5 ml for all PO rats administered through oral […]. […] For PO dosing, blood samples were collected using a pre-heparinized syringe via the carotid artery catheter before dosing and at t=5, 15, 30, 60, 120, 180, 360, and 480 minutes post dosing. 250 uL of blood was obtained at each time point from each animal. Equal volumes of 0.9% normal saline were replaced to prevent dehydration. The whole blood samples were maintained on ice until centrifugation. Blood samples were centrifuged at 14,000 rpm for 10 minutes at 4° C., and the upper plasma layer was transferred into a clean vial and store at −80° C. The plasma was analyzed.

[3] = Aqueous equilibrium solubility; format: physicochemical; conditions: room temperature
Experimental: Equilibrium solubility was measured in a pH 2.0 isotonic solution of NaCl/HCl and a pH 7.4 aqueous buffer. The pH 2.0 solution was prepared by adjusting the saline solution to a pH of 2.0 using HCl. The pH 7.4 buffer was prepared by adjusting the pH of a 0.07 M solution of NaH2PO4 to pH 7.4 with 10 N NaOH. […] At least 1 mg of powder was combined with 1 ml of buffer to make ≧1 mg/ml mixture. This sample was shaken for ≧2 hours and left to stand overnight at room temperature. The samples were then filtered through a 0.45-μm Nylon syringe filter that was first saturated with the sample. The filtrate was sampled twice, consecutively. All samples were assayed by LC/MS using electrospray ionization. The typical range of the assay is greater than 1 mg/mL to less than 0.0002 mg/mL, depending on analytical sensitivity.

[4] = Partition coefficient Log(D), 1-octanol / pH 7.4 buffer; format: physicochemical; conditions: pH 7.4, 1-octanol/buffer
Experimental: The partition coefficient, Log(D), between water-saturated 1octanol and pH 7.4 buffer was determined for Compound 18. The pH 7.4 buffer was prepared by adjusting the pH of a 0.07 M solution of NaH2PO4 to pH 7.4 with 10 N NaOH. 15 μL of a 10 mM stock solution of test article were pipetted in duplicate, into test tubes containing 750 μL each of 1-octanol and pH 7.4 buffer. Then 3 μL of 50 mM testosterone was also added to each tube. Then the tubes were rotated for about one hour using a benchtop rotator. Following the rotation, the tubes sat on the bench top for about 1 hour to allow the layers to separate.
Thereafter, 400 μL of the octanol (top) layer was removed and placed into a test tube. Next 400 μL of the aqueous (bottom) layer was removed and placed into a test tube. […]
A standard curve of test article and testosterone was prepared using 50% methanol at the following concentrations: 2, 0.6, 0.2, 0.06, 0.02, 0.006, and 0.002 μM. The samples were analyzed by LC/MS monitoring both test article and testosterone. Log (D) was calculated for each duplicate sample by taking the calculated concentration of the least diluted sample for each phase that fell within the standard curve using the following equation: Log(D)=Log10(Calc. Conc. in Organic Phase/Calc. Conc. in Aqueous Phase).

CYP2C19 = CYP2C19 (Homo sapiens, UniProt P33261); experiment: Cytochrome p450 inhibition assessment, CYP2C19; format: in vitro ADME; conditions: estimated
Chain of CYP2C19 (P33261 whole entry): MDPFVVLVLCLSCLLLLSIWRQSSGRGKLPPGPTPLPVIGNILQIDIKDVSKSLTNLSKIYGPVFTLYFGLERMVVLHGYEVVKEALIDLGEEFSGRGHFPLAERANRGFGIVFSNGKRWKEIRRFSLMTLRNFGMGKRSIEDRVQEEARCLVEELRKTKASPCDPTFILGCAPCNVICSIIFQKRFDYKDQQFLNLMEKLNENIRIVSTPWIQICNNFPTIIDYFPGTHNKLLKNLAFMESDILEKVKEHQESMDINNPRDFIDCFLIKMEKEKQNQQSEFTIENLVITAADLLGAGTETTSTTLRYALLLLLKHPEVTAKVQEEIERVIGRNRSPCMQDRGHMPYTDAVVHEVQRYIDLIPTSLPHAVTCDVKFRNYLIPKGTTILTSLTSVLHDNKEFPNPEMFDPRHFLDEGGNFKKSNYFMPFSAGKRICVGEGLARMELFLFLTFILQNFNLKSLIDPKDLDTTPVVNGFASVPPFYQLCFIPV
Experimental: The ability of test compounds to inhibit five major human cytochrome p450 isozymes was evaluated. Cytochrome p450 inhibition assays were performed on 96-well microtiter assay plates according to the protocols described in Gentest P450 inhibition instruction manuals. The assays were performed in duplicate at 8 concentrations with the upper concentration of 100 μM followed by a 1:3 serial dilution. Reactions were initiated by the addition of 100 μL of enzyme/substrate mix to 100 μL of cofactor/serial dilution mix, and terminated by addition of 75 μL of a 4:1 acentonitrile: 0.5 M Tris base solution or by 2N NaOH for CYP3A4/DBF. Fluorescence was measured using a fluorescence plate reader (FLUOstar model 403, BMG Lab Technologies, Durham, N.C.). For reactions with inhibition greater than 50%, IC50 values were determined by fitting the data to the Hill equation using software GraphPad Prism (Version 4.02, GraphPad Software, San Diego, Calif.).

Cmax [2]: 1750 nM
Tmax [2]: 3 h
clearance ([2]; read-out: Clearance (Cl) (converted)): 8.83 mL/min/kg
bioavailability ([2]; read-out: Oral Bioavailability (%F)): 30.1%
Vd ([2]; read-out: Volume of distribution (Vd)): 2.82 L/kg
half-life ([2]; read-out: half life (t1/2) (converted)): 3.71 h
solubility thermodynamic ([3]; pH 2.0 isotonic NaCl/HCl solution, simulated gastric fluid, thermodynamic from solid, pH 2.0 isotonic NaCl/HCl): < 0.2 µg/mL
equilibrium solubility ([3]; pH 7.4 aqueous buffer): low solubility
Log (D) [4]: less than 4.7
IC50 (CYP2C19): 26.9 µM
Structure (SMILES): O=C(Nc1ccc(C(F)(F)F)cc1)c1ccc(-c2ncccc2Cl)cc1 [Compound 18, 4-(3-Chloropyridin-2-yl)-N-(4-trifluoromethyl-phenyl)benzamide]
pawlick response induced by treatment with capsaicin [1]: significantly inhibited
